63 compounds from ChEMBL document CHEMBL1135798, “Structure-activity relationships of the antimalarial agent artemisinin. 6. The development of predictive in vitro potency models using CoMFA and HQSAR methodologies” (2002) can be followed below.

The experiment concerns Plasmodium falciparum. In words: Antimalarial activity against chloroquine-resistant, mefloquine-sensitive Plasmodium falciparum W2. Type of experiment: functional.
`CC1(C)OO[C@]23CCCCC2CC(=O)OC3O1` (stereo partly drawn): the “Log RA” value is -2.237.

Take `C[C@@]12CC[C@H]3CCC[C@H]4CC(=O)O[C@H](O1)[C@@]34OO2`: the “Log RA” value is recorded as -0.36.

On to `CCCC(=O)OCC(CC)(CC)OOC(C)(C)C`, for which the “Log RA” value is -4.

On to `CCC[C@@]12CC[C@H]3[C@H](C)CC[C@H]4CCO[C@H](O1)[C@]43OO2`, for which the “Log RA” value is listed as 0.84.

Take `CO[C@H]1O[C@@]2(C)CC[C@H]3CCC[C@@H](CCOCc4ccc(-c5ccccc5)cc4)[C@]31OO2`: the “Log RA” value is recorded as 0.32.

Take `CCO[C@H]1O[C@@H]2O[C@@]3(C)CC[C@H]4C(C)[C@@H](O)C[C@@H]([C@H]1C)[C@@]24OO3` (stereo partly drawn): the “Log RA” value stood at 0.34.

For `CC[C@H]1C(=O)O[C@@H]2O[C@@]3(C)CC[C@H]4[C@H](C)CC[C@@H]1[C@@]24OO3`, the “Log RA” value is reported as 1.4.

In the case of `CO[C@H]1O[C@]2(C)OO[C@]13[C@H](CCO)CCC[C@@H]3CC2(C)C`, the “Log RA” value is -1.8.

For the compound `CC(C)[C@H]1C(=O)O[C@@H]2O[C@@]3(C)CC[C@H]4[C@H](C)CC[C@]1(C)[C@@]24OO3`, the “Log RA” value is listed as -0.04.

As to `C[C@@H]1CC[C@@H]2[C@]34OO[C@](C)(CC[C@@H]13)O[C@H]4OC(=O)[C@]21CO1`, the “Log RA” value is -4.

Regarding `C[C@H]1[C@@H](O[C@H](C)c2ccc(C(=O)O)cc2)O[C@@H]2O[C@@]3(C)CC[C@H]4[C@H](C)CC[C@@H]1[C@@]24OO3`, the “Log RA” value is reported as 0.12.

For the compound `C[C@H]1[C@@H](O[C@@H](C)c2ccc(C(F)(F)F)cc2)O[C@@H]2O[C@@]3(C)CC[C@H]4[C@H](C)CC[C@@H]1[C@@]24OO3`, the “Log RA” value is listed as 0.15.

For the compound `C[C@@H]1CC[C@@H]2[C@]34OO[C@](C)(CC[C@@H]13)O[C@H]4OC(=O)[C@@]2(Br)CBr`, the “Log RA” value is on record as -1.64.

On to `C[C@@H]1CC[C@H]2[C@@H](C)C(CC(C)(F)F)O[C@@H]3O[C@@]4(C)CC[C@@H]1[C@]32OO4` (stereo partly drawn), for which the “Log RA” value was -0.17.

Consider `C[C@@H]1CC[C@H]2[C@@H](C)C(=O)N(CC=O)[C@@H]3O[C@@]4(C)CC[C@@H]1[C@@]23OO4`, for which the “Log RA” value is given as 1.47.

For the compound `CCO[C@H]1O[C@@H]2O[C@@]3(C)CC[C@H]4C(C)=C(F)C[C@@H]([C@H]1C)[C@@]24OO3`, the “Log RA” value was -0.12.

Take `CC(=O)Oc1ccc([C@H](C)O[C@H]2O[C@@H]3O[C@@]4(C)CC[C@H]5[C@H](C)CC[C@@H]([C@H]2C)[C@@]35OO4)cc1`: the “Log RA” value was 0.68.

In the case of `C[C@@H]1CC[C@H]2CCO[C@@H]3O[C@@]4(CCc5ccccc5)CC[C@@H]1[C@@]23OO4`, the “Log RA” value was -1.7.

Turning to `CO[C@]1(C)CC[C@H]2[C@H](C)CCC[C@]2(C=O)OO1`, the “Log RA” value is recorded as -3.3.

In the case of `C[C@@H]1CC[C@H]2[C@@H](C)C(=O)O[C@@H]3O[C@@]4(C)CC[C@@H]1[C@]32OO4` [ARTEMISININ], the “Log RA” value is on record as 0.

For `CC(C)CCN1C(=O)C[C@@H]2CC[C@@H](C)[C@@H]3CC[C@@]4(C)OO[C@@]23[C@H]1O4`, the “Log RA” value is -0.04.

For `C[C@@H]1CC[C@H]2C3(CC3)C(=O)O[C@@H]3O[C@@]4(C)CC[C@@H]1[C@]32OO4`, the “Log RA” value is listed as -0.94.

For the compound `C[C@@H]1CC[C@H]2[C@@H](CCc3ccccc3)C(=O)O[C@@H]3O[C@@]4(C)CC[C@@H]1[C@]32O4`, the “Log RA” value is recorded as -4.

For the compound `C[C@@H]1CC[C@H]2[C@@H](C)C(=O)N(c3ccco3)[C@@H]3O[C@@]4(C)CC[C@@H]1[C@@]23OO4`, the “Log RA” value was 0.11.

`CCCC[C@H]1C(=O)OC2OC(C)(C)OO[C@@]23CCCCC13` (stereo partly drawn): the “Log RA” value was -1.13.

For `CCO[C@H]1O[C@@H]2O[C@@]3(C)CC(O)[C@H]4C(C)CC[C@@H]([C@H]1C)[C@@]24OO3` (stereo partly drawn), the “Log RA” value was -1.08.

Take `C[C@@H]1CC[C@H]2[C@H](C)C(=O)O[C@@H]3O[C@@]4(C)CC[C@@H]1[C@]32OO4`: the “Log RA” value is on record as -0.17.

As to `C=C1C(O)O[C@@H]2O[C@@]3(C)CC[C@H]4[C@H](C)CC[C@@H]1[C@@]24OO3` (stereo partly drawn), the “Log RA” value is given as -2.39.

Regarding `CC(C)CCC[C@H]1C(=O)O[C@@H]2O[C@@]3(C)CC[C@H]4[C@H](C)CC[C@@H]1[C@@]24OO3`, the “Log RA” value is listed as -0.04.

As to `CC1CO[C@@H]2O[C@@]3(C)CC[C@H]4[C@H](C)CC[C@@H]1[C@@]24OO3` (stereo partly drawn), the “Log RA” value is -0.79.

With `CC(C)CN1C(=O)C[C@@H]2CC[C@@H](C)[C@@H]3CC[C@@]4(C)OO[C@@]23[C@H]1O4`, the “Log RA” value came to 0.02.

On to `C[C@@H]1CC[C@H]2CC(=O)O[C@@H]3O[C@@]4(CCCc5ccc(Cl)cc5)CC[C@@H]1[C@@]23OO4`, for which the “Log RA” value is on record as 0.1.

For the compound `CO[C@H]1O[C@@]2(C)CC[C@H]3CCC[C@@H](CCOC(=O)CNC(=O)OC(C)(C)C)[C@]31OO2`, the “Log RA” value is listed as -0.04.

Consider `COC(=O)[C@@H](C)COC1O[C@@H]2O[C@@]3(C)CC[C@H]4[C@H](C)CC[C@@H]([C@H]1C)[C@@]24OO3` (stereo partly drawn), for which the “Log RA” value is 1.79.

In the case of `C[C@@H]1CC[C@H]2[C@@H](C)C(OCC3C4CC5CC(C4)CC3C5)O[C@@H]3O[C@@]4(C)CC[C@@H]1[C@]32OO4` (stereo partly drawn), the “Log RA” value is on record as 0.28.

In the case of `CCCC[C@H]1C(O)O[C@@H]2O[C@@]3(C)CC[C@H]4[C@H](C)CC[C@@H]1[C@@]24OO3` (stereo partly drawn), the “Log RA” value amounted to 0.96.

On to `C[C@@H]1CC[C@@H]2[C@]34OO[C@](C)(CC[C@@H]13)O[C@H]4OC(=O)[C@@]2(O)CO`, for which the “Log RA” value is reported as -4.

`CCN(CC)C(=O)c1ccc(C(=O)OCC[C@@H]2CCC[C@@H]3CC[C@@]4(C)OO[C@]32[C@@H](OC)O4)cc1`: the “Log RA” value is recorded as 0.23.

In the case of `CC(C)CN1C(=O)[C@H](C)[C@@H]2CC[C@@H](C)[C@@H]3CC[C@]4(C)O[C@@H]1[C@@]32O4`, the “Log RA” value is -4.

Consider `C[C@@H]1CC[C@H]2CCO[C@@H]3O[C@@]4(C)CC[C@@H]1[C@@]23OO4`, for which the “Log RA” value is reported as 0.28.

For the compound `CCCCCC[C@H]1C(=O)O[C@@H]2O[C@@]3(C)CC[C@H]4[C@H](C)CC[C@@H]1[C@@]24O3`, the “Log RA” value was -4.

For the compound `C[C@H]1[C@@H](O[C@@H](C)c2ccc(C(=O)O)cc2)O[C@@H]2O[C@@]3(C)CC[C@H]4[C@H](C)CC[C@@H]1[C@@]24OO3`, the “Log RA” value is on record as 0.21.

On to `C[C@@H]1CC[C@H]2[C@@H](C)C(=O)N[C@@H]3O[C@@]4(C)CC[C@@H]1[C@]32O4`, for which the “Log RA” value was -4.

For the compound `C[C@@H]1CC[C@H]2CC(=O)N(CCCc3ccccc3)[C@@H]3O[C@@]4(C)CC[C@@H]1[C@@]23OO4`, the “Log RA” value came out at 0.02.

Turning to `CC(C)C[C@H]1C(=O)O[C@@H]2O[C@@]3(C)CC[C@H]4[C@H](C)CC[C@@H]1[C@@]24OO3`, the “Log RA” value is -0.55.

For `C=C/N=N/[C@H]1C(=O)O[C@@H]2O[C@]3(C)CC[C@H]4[C@H](C)CC[C@@H]1[C@@]24OO3`, the “Log RA” value is -2.7.

Turning to `C[C@@H]1CC[C@H]2[C@@H](CCCCc3ccccc3)C(=O)O[C@@H]3O[C@@]4(C)CC[C@@H]1[C@]32O4`, the “Log RA” value is -4.

As for `C[C@@H]1CC[C@H]2CC(=O)N(Cc3ccc(Cl)cc3)[C@@H]3O[C@@]4(C)CC[C@@H]1[C@@]23OO4`, the “Log RA” value is listed as -0.16.

As to `CC(C)CC[C@H]1C(=O)O[C@@H]2O[C@@]3(C)CC[C@H]4[C@H](C)CC[C@@H]1[C@@]24OO3`, the “Log RA” value is 0.07.

`c1ccc([C@]23CC[C@@](c4ccccc4)(COC2)OO3)cc1`: the “Log RA” value is on record as -2.26.

Consider `C[C@H]1[C@@H](O)O[C@@H]2O[C@@]3(C)CC[C@H]4[C@H](C)CC[C@@H]1[C@@]24OO3` [ARTENIMOL], for which the “Log RA” value stood at 0.55.

For `CCCCC[C@H]1CO[C@@H]2O[C@@]3(C)CC[C@H]4[C@H](C)CC[C@@H]1[C@@]24OO3`, the “Log RA” value was 0.16.

Take `CCOC(=O)COC1O[C@@H]2O[C@@]3(C)CC[C@H]4[C@H](C)CC[C@@H]([C@H]1C)[C@@]24OO3` (stereo partly drawn): the “Log RA” value was 0.52.

As to `CCC1(CC)OO[C@]23CCCCC2[C@@H](C)C(=O)OC3O1` (stereo partly drawn), the “Log RA” value was -0.6.

`COC(=O)CCOC1O[C@@H]2O[C@@]3(C)CC[C@H]4[C@H](C)CC[C@@H]([C@H]1C)[C@@]24OO3` (stereo partly drawn): the “Log RA” value is 0.1.

Consider `C[C@@H]1CC[C@H]2[C@@H](C)C(CCCO)O[C@@H]3O[C@@]4(C)CC[C@@H]1[C@]32OO4` (stereo partly drawn), for which the “Log RA” value was found to be 0.78.

As to `C[C@H]1C(=O)OC2OC(C)(C)OO[C@@]23CCCCC13` (stereo partly drawn), the “Log RA” value is -1.27.

On to `COC(=O)c1ccc(C(=O)OCC[C@@H]2CCC[C@@H]3CC[C@@]4(C)OO[C@]32[C@@H](OC)O4)cc1`, for which the “Log RA” value is 0.27.

Consider `CCOC(=O)[C@@H](O[C@H]1O[C@@H]2O[C@@]3(C)CC[C@H]4[C@H](C)CC[C@@H]([C@H]1C)[C@@]24OO3)c1ccccc1`, for which the “Log RA” value is 1.25.

With `C[C@@H]1CC[C@H]2[C@@H](C)C(OC(C)(C)C)O[C@@H]3O[C@@]4(C)CC[C@@H]1[C@]32OO4` (stereo partly drawn), the “Log RA” value was 0.92.

Turning to `CO[C@@H]1O[C@@]2(C)CC[C@H]3CCC[C@@H](CCOC(=O)N(c4ccccc4)c4ccccc4)[C@]31OO2`, the “Log RA” value is recorded as 1.06.

With `C[C@@H]1CC[C@H]2[C@@H](C)C(=O)N(c3cccs3)[C@@H]3O[C@@]4(C)CC[C@@H]1[C@@]23OO4`, the “Log RA” value amounted to 0.17.

Turning to `C[C@H]1[C@@H](O[C@@H](CC(=O)O)c2ccc([N+](=O)[O-])cc2)O[C@@H]2O[C@@]3(C)CC[C@H]4[C@H](C)CC[C@@H]1[C@@]24OO3`, the “Log RA” value is 0.1.
